Laboratory results from patent US10513694B2, “Thienopyrrole compounds and uses thereof” (PROMEGA CORPORATION, priority 2015, dated 2019).

What was measured:
[1] = tested on: Nluc-HALOTAG labeled with NANOBRET 618 ligand; test: Inhibition of extracellular BRET; type: cell-based; details: HEK293 Nluc-HDAC6; 10 ng/mL extracellular Nluc-HALOTAG/NANOBRET 618; 2 hrs
Procedure: HEK293 were transiently transfected with an Nluc-HDAC6 fusion protein to orient Nluc-HDAC6 inside the cell. 24 hrs post-transfection, cells were treated 10 ng/mL purified Nluc-HALOTAG labeled with NANOBRET 618 ligand to simulate spurious extracellular BRET. Cells were then exposed to a compound response curve of the thienopyrrole compounds, JRW-0013, JRW-0051, JRW-0147, and JRW-0187, for 2 hrs. 10 μM furimazine was then added, and BRET ratio 610/450 nm was measured.

[2] = tested on: Beta-2 Adrenergic Receptor-Nluc (B2AR-Nluc) fusion protein; test: Cell permeability, B2AR-Nluc in HEK293 or HeLa cells -/+ digitonin; type: cell-based
Procedure: HEK293 or HeLa cells were transiently transfected with Beta-2 Adrenergic Receptor-Nluc (B2AR-Nluc) fusion protein to anchor and orient Nluc cytosolically. 24 hrs post-transfection, cells were treated with −/+50 μg/mL digitonin to emulate a live and lytic scenario, respectively. Then, intact cells and permeabilized cells were exposed to a compound response curve of thienopyrrole compound up to 2 hrs. 10 μM furimazine (Promega Corp.) was added, and luminescence was measured. If a thienopyrrole compound (inhibitor) was permeable, the dose-response curves for both live and permeabilized cells overlapped. However, if a thienopyrrole compound was impermeable, the EC50 was right-shifted in the live cells relative to the permeabilized cells.

[3] = target: T1, purified Nluc (extracellular); Nluc-HALOTAG fusion protein (intracellular) (Oplophorus gracilirostris, UniProt Q9GV45, A31E/A60N/A81I/F95D/I117V/K70R/L54V/L99Q/M102K/N193R/P142E/Q151K/Q38R/Q45L/V71I/Y165I); test: Inhibition of extracellular luciferase activity and enhancement of intracellular BRET; type: cell-based; details: HEK293 Nluc-HALOTAG + NANOBRET 618; 10 ng/mL extracellular purified Nluc; 2 hrs
T1 construct: expressed in transfected cells; host or cells: HEK293 (Nluc-HaloTag); purified Nluc added from outside
Procedure: HEK293 were transiently transfected with Nluc-HALOTAG fusion protein to orient Nluc-HALOTAG inside the cell. 24 hrs post-transfection, cells were labeled with NANOBRET 618 ligand to simulate specific intracellular BRET. Cells were then treated 10 ng/mL purified Nluc to simulate spurious extracellular luminescence. Cells were exposed to a compound response curve of the thienopyrrole compounds, JRW-0013, JRW-0051, JRW-0147, and JRW-0187, for 2 hrs. 10 μM furimazine was added, and the BRET ratio 610/450 nm was measured.

[4] = tested on: UltraGlo luciferase; test: Specificity of inhibition of Nluc luciferase: UltraGlo luciferase; type: biochemical, firefly; details: RT 2 hrs
Procedure: The following example describes the specificity of disclosed thienopyrrole compounds, JRW-0251, JRW-0344, and JRW-0147, to inhibit Nluc luciferase activity versus firefly luciferase activity, e.g., ULTRAGLO® luciferase. In a Corning 3570 assay plate, a solution containing 1 μM luciferin in Luciferase Detection Reagent (Promega Corporation V865/859) was added to the assay wells. An equal volume of titrations the thienopyrrole compounds, JRW-0251, JRW-0344, and JRW-0147 were then added to the wells. The reactions were incubated at RT for 2 hrs, and luminescence was measured on Tecan M1000 Pro plate reader.

[5] = target: Nluc (Oplophorus gracilirostris, UniProt Q9GV45, A31E/A60N/A81I/F95D/I117V/K70R/L54V/L99Q/M102K/N193R/P142E/Q151K/Q38R/Q45L/V71I/Y165I); test: Multiplex RealTime-Glo / Caspase-Glo 3/7 in DMEM media; type: biochemical; parameters: purchased Promega Corporation; details: for Avg (luminescence), 1 hour: RealTime-Glo reagent in DMEM + Caspase-Glo 3/7
Procedure: In a Corning 3570 assay plate, 1× REAL-TIME-GLO™ MT Cell Viability assay reagent was prepared in 40 μL DMEM media (n=3) and incubated overnight. Next, 40 μL of a titration of JRW-0147 or JRW-0344 (2× concentration in CASPASE-GLO® 3/7 Assay Reagent (Promega Corporation)) was added. The reactions were incubated at room temperature, and luminescence determined at 1 hour.

[6] = target: T2, purified Nluc enzyme (Oplophorus gracilirostris, UniProt Q9GV45, A31E/A60N/A81I/F95D/I117V/K70R/L54V/L99Q/M102K/N193R/P142E/Q151K/Q38R/Q45L/V71I/Y165I); type: biochemical; details: titration up to 100 μM final; RT 2 hrs; pro-substrate PBI-4442 + DTT
T2 construct: purchased Promega Corporation
In short: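 Purified Nluc enzyme with 20 mM DTT and a pro-substrate reduced by DTT to the Nluc substrate. 11-point 1:2 compound titrations (top 100 μM final) incubated 2 h at RT; luminescence read and IC50 fitted.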

Chain of Nluc (Q9GV45 28-196 with tags or gaps with the stated changes limits assumed): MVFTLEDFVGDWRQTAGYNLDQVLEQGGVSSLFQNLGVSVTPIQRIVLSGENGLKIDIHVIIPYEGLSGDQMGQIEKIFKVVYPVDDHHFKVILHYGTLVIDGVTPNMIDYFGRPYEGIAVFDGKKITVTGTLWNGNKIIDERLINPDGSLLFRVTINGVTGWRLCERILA
T2 sequence (Q9GV45 28-196 with tags or gaps with the stated changes limits assumed): as above
T1 sequence (Q9GV45 28-196 with tags or gaps with the stated changes limits assumed): as above

SMILES: CCN(C(=O)Cn1c(C(=O)N[C@H]2CC[C@H](C(=O)NCCCCCC(=O)O)CC2)cc2sccc21)c1cccc(C)c1 [JRW-0147, 6-(trans-4-(4-(2-(ethyl(m-tolyl)amino)-2-oxoethyl)-4H-thieno[3,2-b]pyrrole-5-carboxamido)cyclohexane-1-carboxamido)hexanoic acid]
- BRET ratio 610/450 nm across compound dose-response curve (FIGS. 12B-12E) [1]: BRET ratio decreased
- Cell permeability [2]: cell-impermeable
- BRET ratio 610/450 nm across compound dose-response curve (FIGS. 13B-13E) [3]: intracellular BRET ratio was enhanced
- Inhibition of firefly luciferase activity (Table 3) [4]: did not inhibit the firefly luciferase activity
- UltraGlo luciferase, Avg (luminescence) ([4]; [cmpd] 0.1953125 μM): 85561
- UltraGlo luciferase, S/B ([4]; [cmpd] 0.1953125 μM): 0.99
- UltraGlo luciferase, Avg (luminescence) ([4]; [cmpd] 0.390625 μM): 84087
- UltraGlo luciferase, S/B ([4]; [cmpd] 0.390625 μM): 0.97
- UltraGlo luciferase, Avg (luminescence) ([4]; [cmpd] 0.78125 μM): 84072
- UltraGlo luciferase, S/B ([4]; [cmpd] 0.78125 μM): 0.97
- UltraGlo luciferase, Avg (luminescence) ([4]; [cmpd] 1.5625 μM): 83668
- UltraGlo luciferase, S/B ([4]; [cmpd] 1.5625 μM): 0.97
- UltraGlo luciferase, Avg (luminescence) ([4]; [cmpd] 3.125 μM): 82252
- UltraGlo luciferase, S/B ([4]; [cmpd] 3.125 μM): 0.95
- UltraGlo luciferase, Avg (luminescence) ([4]; [cmpd] 6.25 μM): 83282
- UltraGlo luciferase, S/B ([4]; [cmpd] 6.25 μM): 0.97
- UltraGlo luciferase, Avg (luminescence) ([4]; [cmpd] 12.5 μM): 83291
- UltraGlo luciferase, S/B ([4]; [cmpd] 12.5 μM): 0.97
- UltraGlo luciferase, Avg (luminescence) ([4]; [cmpd] 25 μM): 84033
- UltraGlo luciferase, S/B ([4]; [cmpd] 25 μM): 0.97
- UltraGlo luciferase, Avg (luminescence) ([4]; [cmpd] 50 μM): 81106
- UltraGlo luciferase, S/B ([4]; [cmpd] 50 μM): 0.94
- UltraGlo luciferase, Avg (luminescence) ([4]; [cmpd] 100 μM): 80636
- UltraGlo luciferase, S/B ([4]; [cmpd] 100 μM): 0.93
- UltraGlo luciferase, Avg (luminescence) ([4]; [cmpd] 200 μM): 78035
- UltraGlo luciferase, S/B ([4]; [cmpd] 200 μM): 0.90
- S/B, 1 hour ([5]; [cmpd] final 0.09765625 μM): 0.84
- Avg (luminescence), 1 hour ([5]; [cmpd] final 0.09765625 μM): 117067
- S/B, 1 hour ([5]; [cmpd] final 0.1953125 μM): 0.89
- Avg (luminescence), 1 hour ([5]; [cmpd] final 0.1953125 μM): 124500
- S/B, 1 hour ([5]; [cmpd] final 0.390625 μM): 0.85
- Avg (luminescence), 1 hour ([5]; [cmpd] final 0.390625 μM): 117833
- S/B, 1 hour ([5]; [cmpd] final 0.78125 μM): 0.77
- Avg (luminescence), 1 hour ([5]; [cmpd] final 0.78125 μM): 106867
- S/B, 1 hour ([5]; [cmpd] final 1.5625 μM): 0.47
- Avg (luminescence), 1 hour ([5]; [cmpd] final 1.5625 μM): 65173
- S/B, 1 hour ([5]; [cmpd] final 3.125 μM): 0.32
- Avg (luminescence), 1 hour ([5]; [cmpd] final 3.125 μM): 45167
- S/B, 1 hour ([5]; [cmpd] final 6.25 μM): 0.20
- Avg (luminescence), 1 hour ([5]; [cmpd] final 6.25 μM): 27817
- S/B, 1 hour ([5]; [cmpd] final 12.5 μM): 0.12
- Avg (luminescence), 1 hour ([5]; [cmpd] final 12.5 μM): 17293
- S/B, 1 hour ([5]; [cmpd] final 25 μM): 0.08
- Avg (luminescence), 1 hour ([5]; [cmpd] final 25 μM): 10699
- S/B, 1 hour ([5]; [cmpd] final 50 μM): 0.06
- Avg (luminescence), 1 hour ([5]; [cmpd] final 50 μM): 8136
- S/B, 1 hour ([5]; [cmpd] final 100 μM): 0.05
- Avg (luminescence), 1 hour ([5]; [cmpd] final 100 μM): 6568
- Inhibition of purified Nluc enzyme (FIG. 2) [6]: capable of inhibiting purified Nluc enzyme
